Consider 6 compounds from patent US20170246129A1, “COMPOSITION USING GUANIDINE COMPOUND FOR SUPPRESSING TRANSFORMING GROWTH FACTOR (TGF)-beta” (Peking University Third Hospital, priority 2016, published 2017).

pKd: −log10 of the molar value. Structures can show the parent of a compound that is named as a salt. Where two headings read alike, the source gives them in different places.

In data set [1] the test system is TGFβ1 induced phosphorylated Smad3 (p-Smad3). Kind of data set: Western blotting of TGFβ1 induced phosphorylated Smad3 in 3T3 cells. The format is cell-based, mouse. The conditions noted are these: compound 1 mmol/L premixed with TGF-β1 (5 ng/mL) for 2 h, 3T3 cells treated 30 min, FIG. 9. On the procedure:
2: Moroxydinehydrochloride (dissovled in ddH2O, 1 mmol/L); 3: Phenylbiguanide (dissolved in DMSO, 1 mmoL/L); 4: 1-(2,3-Dichlorophenyl) biguanide hydrochloride (dissolved in DMSO, 1 mmoL/L); 5: 1,3-Di(o-tolyl)guanidine (dissolved in DMSO, 1mmoL/L); 6: Buformin hydrochloride (dissolved in EtOH, 1 mmol/L). These compounds and TGF-β1 (5 ng/mL) were premixed for 2 h separately and then 3T3 cells were treated with the mixture for 30 min prior to sample collection. […] Bicinchoninic acid reagents were used to measure the protein concentration. Equal amounts of proteins were separated by SDS-PAGE and transferred to polyvinylidene difluoride membranes. The blots were immunoreacted with primary antibodies and secondary antibodies conjugated with horseradish peroxidase. […] GAPDH antibodies were purchased from Santa Cruz Biotechnology (Santa Cruz, Calif., USA). Protein bands were visualized by enhanced chemiluminescence detection and the intensity was quantified by use of Image-J software.

For the next data set, the target named is T1, TGF-β1/TβRII (Homo sapiens, UniProt P01137).
T1 construct: expressed in transfected cells; host or cells: HeLa
T1 sequence (P01137 279-390 limits assumed): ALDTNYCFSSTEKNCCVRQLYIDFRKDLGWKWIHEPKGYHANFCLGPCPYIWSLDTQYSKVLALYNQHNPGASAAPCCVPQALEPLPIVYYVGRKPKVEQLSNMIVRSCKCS
The data set can be described thus: AFM single-molecule force spectroscopy of TGF-β1-TβRII binding on HeLa cells. The method, then: The present invention investigated the binding force and the binding probability between TGF-β1 and TβRII on live cells using AFM-based single-molecule force spectroscopy. TGF-β1-modified AFM tips (type: NP-10, Bruker, Santa Barbara, Calif., USA) were prepared as followed. The spring constants of the tips, calibrated by the thermal fluctuation method, were in the range of 0.025-0.045 N/m. The tips were first cleaned and hydroxized through the treatment with chloroform, HF acid, alkaline solution (NH4OH/H2O2/H2O) 1:1:5, v/v) and piranha solution (98% H2SO4/H2O2) 7:3, v/v), respectively, to generate Si-OH on the wafers. Then they were transferred to a solution of 1.0% (v/v) MPTMS in toluene, incubated for 2 h at room temperature, and rinsed thoroughly with toluene to be modified with —SH groups. […]
Hela cells were transfected with the TβRII-GFP plasmid for 24 h, and the force measurements were performed on a PicoSPM II system with a PicoScan 3000 controller and a large scanner (Agilent, Santa Clara, Calif., USA). The AFM scanner was mounted on an inverted fluorescence microscope (Olympus IX71, Japan). […] All of the force curves were measured with the contact mode at room temperature using a soft cantilever (0.06 N m-1). […] The force curves were recorded using PicoScan 5 software (Molecular Imaging, Tempe, Ariz., USA) and analyzed using a program in MATLAB (MathWorks Corp., Natick, Mass., USA.).

The conditions of data set [2]: persons receiving the drug therapeutically, cited from earlier work.
Another data set concerns the target TGF-β1 (Homo sapiens, UniProt P01137). The data set can be described thus: Surface plasmon resonance (SPR)-based assay. As to conditions: Biacore T200, 25° C., TGF-β1 on CM5 chip, steady-state single site binding model. On the procedure:
Experiments were performed at 25° C. using a Biacore T200 and the data were analyzed using Biacore T200 evaluation software 2.0 (GE Healthcare, Stockholm, Sweden). […] The steady-state values were calculated from the sensorgrams and plotted against the concentrations. The data were fit to a single site binding model to calculate the KD.
On the technique in general: Surface plasmon resonance follows binding to a sensor surface in real time, without labels.

In data set [3] the target is T2, [125I]-TGFβ1 binding to its receptor in 3T3 mouse fibroblasts (Homo sapiens, UniProt P01137).
T2 construct: endogenous in cells; host or cells: 3T3 mouse fibroblasts
T2 sequence (P01137 279-390 limits assumed): as above
Kind of data set: [125I]-TGFβ1 binding assay. As to conditions: printed as log[IC50], 50 pM [125I]-TGFβ1, 4 h at 4° C., four independent experiments, read-out: log[IC50] of [125I]-TGFβ1 binding inhibition (converted). On the procedure: 3T3 mouse fibroblasts were seeded in a 24 well-plate and cultured in DMEM supplemented with 10% FBS and antibiotics (100 U/mL penicillin-streptomycin). […] After 4 h at 4° C., the medium was removed and cells were washed five times with ice-cold binding buffer (50 mM HEPES, 128 mM NaCl, 5 mM KCl, 5 mM MgSO4, and 1.2 mM CaCl2). The cells were then solubilized using binding buffer containing 1% Triton X-100 and the radioactivity was measured. Non-specific binding was determined in the presence of an excess (10 nM) of unlabeled TGFβ1.

A further data set concerns TβRII-GFP on HeLa cells. Kind of data set: Single-molecule fluorescence imaging (TIRFM) of TGF-β1-induced TβRII dimerization. The conditions noted are these: TGF-β1 10 ng/mL, 15 min at 37° C., FIG. 2D. The data set is classed as cell-based. The method, then: In the previous study, individual green fluorescent protein (GFP)-tagged TβRII molecules were imaged on the cell membrane by total internal reflection fluorescence microscopy (TIRFM) to study the receptor activation.
Single molecule fluorescence imaging was performed with objective-type total internal reflection fluorescence microscopy (TIRFM) using an inverted Olympus IX71 microscope equipped with a total internal reflective fluorescence illuminator'a, 100X/1.45NA Plan Apochromat TIR objective and an intensified CCD (ICCD) camera (Pentamax EEV 512×512 FT, Roper Scientific). Hela cells were transfected with TβRII-GFP plasmid for 4 h, washed, and then imaged in the serum-free and phenol red-free MEM under the fluorescence microscopy. GFP was excited at 488-nm by an argon laser (Melles Griot, Carlsbad, Calif.). Movies of 200-300 frames were acquired for each sample at a frame rate of 10 Hz. […] To analyze single-molecule fluorescence intensity and the photobleaching steps, regions of interest for bleaching analysis were selected as followed. Firstly, the background fluorescence was subtracted from the movie acquired from the fixed cells using rolling ball method in Image J software (National Institutes of Health). […] Finally, time courses and the integrated fluorescence intensity of regions which were selected according to the method above were extracted for photobleaching analysis. […]

TGF-β1, sequence (P01137 279-390 limits assumed): as above

With `Cc1ccccc1NC(=N)Nc1ccccc1C` [1,3-Di(o-tolyl)guanidine], the “effect on p-Smad3 induced by TGFβ1” value in data set [1] is reported as “attenuate”.
The same measure, in the same setting: for `Cl.N=C(NN)NN` [1,3-Diaminoguanidine monohydrochloride] the value was “no effect”.
For `Cl.N=C(N)NC(=N)Nc1cccc(Cl)c1Cl` [1-(2,3-Dichlorophenyl) biguanide hydrochloride], the “effect on p-Smad3 induced by TGFβ1” value in data set [1] is “no effect”.
Still for that read-out and setting: for `CCCCNC(=N)NC(=N)N` [buformin hydrochloride, Buformin hydrochloride] the value was “attenuate”.
Take `CN(C)C(=N)N=C(N)N` [metformin, metformin hydrochloride]: at TGF-β1/TβRII (50 μM, control 49.5±1.3, P>0.05), the “binding force of TGF-β1 with TβRII” value is recorded as 49.3±1.4 pN. Moreover, the “binding probability of TGF-β1 and TβRII” value on TGF-β1/TβRII (metformin 50 μM, control 21.7±3.5%) is on record as 9.9±1.2%. The “Blood or plasma concentrations” value in data set [2] was 1 to 4 µg/mL; in data set [2] (conversion of μg/mL), 6 to 24 µM. Further, the pKd at TGF-β1 is 4.80. Also, the 50% inhibitory concentration (IC50) in data set [3] is 69.2 µM. The “percentage of TβRII dimers induced by TGF-β1” value with TβRII-GFP on HeLa cells is “inhibited the percentage of dimers induced by TGF-β1 in a dose-dependent manner”.
In the case of `Cl.N=C(N=C(N)N)N1CCOCC1` [moroxydinehydrochloride], the “effect on p-Smad3 induced by TGFβ1” value in data set [1] is given as “no effect”.

A word on the pKd: it is the Kd on a negative log10 scale, so that one unit is a factor of ten. Usually IC50 stands for the concentration at which inhibition is half-maximal.
